ChEMBL document CHEMBL3885861, “Open TG-GATES”

Organism: Rattus norvegicus
Test: Open TG-GATES - Regimen: Daily Repeat
Assay type: toxicity, organism-based, Sprague-Dawley
Parameters: regimen Daily Repeat, gender Male, age 6 weeks
Details: in vivo, po, 450 mg/kg, route gavage, dose level High; for Eos / Fbg / Hb / Ht / Lym / MCH / MCHC / MCV / Mono / Neu / PT / Plat / RBC / Ret / WBC / APTT / Bas: tissue Blood; for KIDNEY_L / KIDNEY_R / KIDNEY_TOTAL: tissue Kidney; for ALP / ALT / AST / BUN / CRE / Ca / Cl / DBIL / GLC / IP / K / LDH / Na / PL / RALB / TBIL / TC / TG / TP / gamma-GTP: tissue Plasma

`CC(=O)Oc1ccccc1C(=O)O` [ASPIRIN] was tested, and the Eos (72 h, time 3 day) was 0.4%, the Fbg (72 h, time 3 day) was 212.4 mg/dL and the Hb (72 h, time 3 day) was 13.5 g/dL. It also gave a Ht (72 h, time 3 day) of 39.3%, a Lym (72 h, time 3 day) of 81.4% and an MCH (72 h, time 3 day) of 21.4 pg. For the same compound, the MCHC (72 h, time 3 day) was 34.2%, the MCV (72 h, time 3 day) was 62.5 fL and the Mono (72 h, time 3 day) was 2%. For the same compound, the Neu (72 h, time 3 day) was 14.8%, the PT (72 h, time 3 day) was 14.1 s and the Plat (72 h, time 3 day) was 122.2 x10_4/uL. It also gave an RBC (72 h, time 3 day) of 630 x10_4/ul, a Ret (72 h, time 3 day) of 4.7% and a WBC (72 h, time 3 day) of 126.2 x10_2/uL. It also gave a KIDNEY_L (72 h, time 3 day) of 1.1 g, a KIDNEY_R (72 h, time 3 day) of 1.1 g and a KIDNEY_TOTAL (72 h, time 3 day) of 2.2 g. The ALP (72 h, time 3 day) was 880.2 IU/L, the ALT (72 h, time 3 day) was 47 IU/L and the AST (72 h, time 3 day) was 82.4 IU/L. It also gave a BUN (72 h, time 3 day) of 14.8 mg/dL, a CRE (72 h, time 3 day) of 0.4 mg/dL and a Ca (72 h, time 3 day) of 11.2 mg/dL. The Cl (72 h, time 3 day) was 103 meq/L, the DBIL (72 h, time 3 day) was 0.1 mg/dL and the GLC (72 h, time 3 day) was 188 mg/dL. It also gave an IP (72 h, time 3 day) of 7.1 mg/dL, a K (72 h, time 3 day) of 3.7 meq/L and an LDH (72 h, time 3 day) of 233.4 IU/L. It also gave a Na (72 h, time 3 day) of 142.2 meq/L, a PL (72 h, time 3 day) of 147.2 mg/dL and an RALB (72 h, time 3 day) of 3.3 g/dL. For the same compound, the TBIL (72 h, time 3 day) was 0.2 mg/dL, the TC (72 h, time 3 day) was 62.2 mg/dL and the TG (72 h, time 3 day) was 187 mg/dL. It also gave a TP (72 h, time 3 day) of 5.5 g/dL, a gamma-GTP (72 h, time 3 day) of 1.4 IU/L and a TERMINAL_BW ([…], time 7 day) of 257.1 g. For the same compound, the TERMINAL_BW ([…], time 14 day) was 301.6 g, the TERMINAL_BW ([…], time 28 day) was 356.2 g and the APTT ([…], time 7 day) was 22.6 s. For the same compound, the Bas ([…], time 7 day) was 0%, the Eos ([…], time 7 day) was 0.8% and the Fbg ([…], time 7 day) was 210.2 mg/dL. The Hb ([…], time 7 day) was 13.3 g/dL, the Ht ([…], time 7 day) was 39.6% and the Lym ([…], time 7 day) was 81.6%. For the same compound, the MCH ([…], time 7 day) was 21.2 pg, the MCHC ([…], time 7 day) was 33.7% and the MCV ([…], time 7 day) was 63 fL. For the same compound, the Mono ([…], time 7 day) was 2.2%, the Neu ([…], time 7 day) was 14% and the PT ([…], time 7 day) was 13.6 s. For the same compound, the Plat ([…], time 7 day) was 111.3 x10_4/uL, the RBC ([…], time 7 day) was 629.4 x10_4/ul and the Ret ([…], time 7 day) was 7.9%. For the same compound, the WBC ([…], time 7 day) was 159.1 x10_2/uL, the APTT ([…], time 14 day) was 22.1 s and the Bas ([…], time 14 day) was 0%. The Eos ([…], time 14 day) was 1%, the Fbg ([…], time 14 day) was 210 mg/dL and the Hb ([…], time 14 day) was 14.5 g/dL. For the same compound, the Ht ([…], time 14 day) was 41.5%, the Lym ([…], time 14 day) was 78.6% and the MCH ([…], time 14 day) was 21.3 pg. The MCHC ([…], time 14 day) was 34.9%, the MCV ([…], time 14 day) was 61.1 fL and the Mono ([…], time 14 day) was 2.6%. The Neu ([…], time 14 day) was 16.4%, the PT ([…], time 14 day) was 13 s and the Plat ([…], time 14 day) was 125.9 x10_4/uL. The RBC ([…], time 14 day) was 679.8 x10_4/ul, the Ret ([…], time 14 day) was 4.7% and the WBC ([…], time 14 day) was 146.8 x10_2/uL. It also gave an APTT ([…], time 28 day) of 23.9 s, a Bas ([…], time 28 day) of 0% and an Eos ([…], time 28 day) of 1%. It also gave a Fbg ([…], time 28 day) of 194.2 mg/dL, a Hb ([…], time 28 day) of 14.9 g/dL and a Ht ([…], time 28 day) of 43.2%. The Lym ([…], time 28 day) was 76.6%, the MCH ([…], time 28 day) was 20.1 pg and the MCHC ([…], time 28 day) was 34.5%. It also gave an MCV ([…], time 28 day) of 58.2 fL, a Mono ([…], time 28 day) of 2.6% and a Neu ([…], time 28 day) of 18.8%. It also gave a PT ([…], time 28 day) of 14 s, a Plat ([…], time 28 day) of 90.2 x10_4/uL and an RBC ([…], time 28 day) of 746.6 x10_4/ul. For the same compound, the Ret ([…], time 28 day) was 3.3%, the WBC ([…], time 28 day) was 115.2 x10_2/uL and the KIDNEY_L ([…], time 7 day) was 1.1 g. The KIDNEY_R ([…], time 7 day) was 1.1 g, the KIDNEY_TOTAL ([…], time 7 day) was 2.3 g and the KIDNEY_L ([…], time 14 day) was 1.3 g. The KIDNEY_R ([…], time 14 day) was 1.3 g, the KIDNEY_TOTAL ([…], time 14 day) was 2.5 g and the KIDNEY_L ([…], time 28 day) was 1.3 g. For the same compound, the KIDNEY_R ([…], time 28 day) was 1.4 g, the KIDNEY_TOTAL ([…], time 28 day) was 2.7 g and the ALP ([…], time 7 day) was 1005.2 IU/L. For the same compound, the ALT ([…], time 7 day) was 51.6 IU/L, the AST ([…], time 7 day) was 102.4 IU/L and the BUN ([…], time 7 day) was 16.8 mg/dL. For the same compound, the CRE ([…], time 7 day) was 0.5 mg/dL, the Ca ([…], time 7 day) was 11 mg/dL and the Cl ([…], time 7 day) was 102.4 meq/L. The DBIL ([…], time 7 day) was 0.1 mg/dL, the GLC ([…], time 7 day) was 207.4 mg/dL and the IP ([…], time 7 day) was 7.4 mg/dL. The K ([…], time 7 day) was 4.1 meq/L, the LDH ([…], time 7 day) was 248.2 IU/L and the Na ([…], time 7 day) was 142 meq/L. It also gave a PL ([…], time 7 day) of 158.6 mg/dL, an RALB ([…], time 7 day) of 3.4 g/dL and a TBIL ([…], time 7 day) of 0.2 mg/dL. For the same compound, the TC ([…], time 7 day) was 66.8 mg/dL, the TG ([…], time 7 day) was 182.4 mg/dL and the TP ([…], time 7 day) was 5.3 g/dL. It also gave a gamma-GTP ([…], time 7 day) of 1.2 IU/L, an ALP ([…], time 14 day) of 871 IU/L and an ALT ([…], time 14 day) of 46.2 IU/L. The AST ([…], time 14 day) was 92.8 IU/L, the BUN ([…], time 14 day) was 16.4 mg/dL and the CRE ([…], time 14 day) was 0.5 mg/dL. For the same compound, the Ca ([…], time 14 day) was 10.8 mg/dL, the Cl ([…], time 14 day) was 101.4 meq/L and the DBIL ([…], time 14 day) was 0.1 mg/dL. It also gave a GLC ([…], time 14 day) of 175.8 mg/dL, an IP ([…], time 14 day) of 7.6 mg/dL and a K ([…], time 14 day) of 4.4 meq/L. It also gave an LDH ([…], time 14 day) of 312 IU/L, a Na ([…], time 14 day) of 141.2 meq/L and a PL ([…], time 14 day) of 170.6 mg/dL. The RALB ([…], time 14 day) was 3.3 g/dL, the TBIL ([…], time 14 day) was 0.2 mg/dL and the TC ([…], time 14 day) was 65.6 mg/dL. The TG ([…], time 14 day) was 250.6 mg/dL, the TP ([…], time 14 day) was 5.4 g/dL and the gamma-GTP ([…], time 14 day) was 0.8 IU/L. For the same compound, the ALP ([…], time 28 day) was 771.8 IU/L, the ALT ([…], time 28 day) was 40.6 IU/L and the AST ([…], time 28 day) was 85.6 IU/L. It also gave a BUN ([…], time 28 day) of 18.4 mg/dL, a CRE ([…], time 28 day) of 0.5 mg/dL and a Ca ([…], time 28 day) of 10.3 mg/dL. For the same compound, the Cl ([…], time 28 day) was 102.6 meq/L, the DBIL ([…], time 28 day) was 0.094 mg/dL and the GLC ([…], time 28 day) was 204.4 mg/dL. The IP ([…], time 28 day) was 6.5 mg/dL, the K ([…], time 28 day) was 4 meq/L and the LDH ([…], time 28 day) was 179 IU/L. It also gave a Na ([…], time 28 day) of 141.8 meq/L, a PL ([…], time 28 day) of 146.6 mg/dL and an RALB ([…], time 28 day) of 3.4 g/dL. The TBIL ([…], time 28 day) was 0.2 mg/dL, the TC ([…], time 28 day) was 58.2 mg/dL and the TG ([…], time 28 day) was 172.4 mg/dL. The TP ([…], time 28 day) was 5.2 g/dL and the gamma-GTP ([…], time 28 day) was 1 IU/L.
